Laboratory results as given in patent US9532519B2, “Plant growth regulator and use thereof” (Japan Science and Technology Agency, priority 2006, dated 2017).

Legend:
[1] = tested on: Arabidopsis; conditions: in vivo
[2] = tested on: Sweet corn; test: Effect 4 of oxidized glutathione on productivity of corn (method and time of treatment); type: in vivo; conditions: 20 mL of 0.2 mM-GSSG each time, to roots or sprayed to stem and leaves; any of the treatment times
Description: Sweet corn was cultivated under the same conditions as those of <15.
Harvest index of the plant thus obtained was measured.

[3] = tested on: transformants of Arabidopsis to which the gFBA gene was introduced and wild-type Arabidopsis (Columbia; Col); test: Influence 3 of oxidized glutathione on gFBA transformant Arabidopsis (GSSG only, 0 mM to 5 mM); type: in vivo; conditions: only GSSG as liquid fertilizer
From the text: This tendency was more clearly observed in the transformants of Arabidopsis to which the gFBA gene was introduced.

**Q.** For oxidized glutathione [GSSG], which “seed weight per one pod vs not treated” value [1] is on record?
**A.** significantly increased the seed weight

**Q.** And the “harvest index vs not treated” value [2]?
**A.** significantly increased

**Q.** And the “effects of increasing seed weight and harvest index compared with ammonium nitrate” value [3]?
**A.** greatly larger than the maximum effects yielded by fertilization with nitrogen resulting from ammonium nitrate

**Q.** And the “concentration of GSSG at which the effect on harvest index was saturated” value ([3]; 0 mM to 5 mM)?
**A.** approximately 2 mM

**Q.** What about the “seed weight as function of GSSG concentration” value ([3]; 0 mM to 5 mM) of the same substance?
**A.** increased as concentration of GSSG increased, and the effect was not saturated at the tested concentration
